The NIST ThermoML archive (doi:10.1016/j.jct.2017.12.023)

Experiment: xn = mol fraction of the nth substance listed
Conditions: 100 kPa, Liquid; for viscosity: Concentric cylinders viscometry; for mass density: Vibrating tube method

CCOS(=O)(=O)[O-].CCn1cc[n+](C)c1 [1-ethyl-3-methylimidazolium ethyl sulfate] + CN1CCCC1=O
Conditions | mass density [kg/m3] | viscosity [mPa·s]
288.15 K, x1 = 0.1009 | 1079.2 | 3.992
288.15 K, x1 = 0.2012 | 1111.89 | 7.313
288.15 K, x1 = 0.3021 | 1138.72 | 12.42
288.15 K, x1 = 0.4012 | 1160.76 | 19.71
288.15 K, x1 = 0.4973 | 1178.79 | 29.14
288.15 K, x1 = 0.596 | 1194.97 | 42.09
288.15 K, x1 = 0.6998 | 1209.56 | 59.32
288.15 K, x1 = 0.7961 | 1221.74 | 79
288.15 K, x1 = 0.8821 | 1231.55 | 104.25
288.15 K, x1 = 1 | 1243.07 | 155.55
293.15 K, x1 = 0.1009 | 1074.95 | 3.554
293.15 K, x1 = 0.2012 | 1107.79 | 6.338
293.15 K, x1 = 0.3021 | 1134.75 | 10.51
293.15 K, x1 = 0.4012 | 1156.89 | 16.36
293.15 K, x1 = 0.4973 | 1175.02 | 23.79
293.15 K, x1 = 0.596 | 1191.28 | 33.7
293.15 K, x1 = 0.6998 | 1205.95 | 46.73
293.15 K, x1 = 0.7961 | 1218.2 | 61.57
293.15 K, x1 = 0.8821 | 1228.07 | 80.25
293.15 K, x1 = 1 | 1239.66 | 117.88
298.15 K, x1 = 0.1009 | 1070.72 | 3.21
298.15 K, x1 = 0.2012 | 1103.71 | 5.637
298.15 K, x1 = 0.3021 | 1130.79 | 9.181
298.15 K, x1 = 0.4012 | 1153.04 | 14.03
298.15 K, x1 = 0.4973 | 1171.26 | 20.08
298.15 K, x1 = 0.596 | 1187.6 | 27.95
298.15 K, x1 = 0.6998 | 1202.35 | 38.08
298.15 K, x1 = 0.7961 | 1214.66 | 49.4
298.15 K, x1 = 0.8821 | 1224.59 | 63.39
298.15 K, x1 = 1 | 1236.27 | 91.26
303.15 K, x1 = 0.1009 | 1066.49 | 2.908
303.15 K, x1 = 0.2012 | 1099.65 | 5.01
303.15 K, x1 = 0.3021 | 1126.85 | 8.026
303.15 K, x1 = 0.4012 | 1149.22 | 12.06
303.15 K, x1 = 0.4973 | 1167.52 | 17
303.15 K, x1 = 0.596 | 1183.95 | 23.38
303.15 K, x1 = 0.6998 | 1198.77 | 31.46
303.15 K, x1 = 0.7961 | 1211.15 | 40.33
303.15 K, x1 = 0.8821 | 1221.13 | 51.1
303.15 K, x1 = 1 | 1232.87 | 72.1
308.15 K, x1 = 0.1009 | 1062.28 | 2.649
308.15 K, x1 = 0.2012 | 1095.59 | 4.488
308.15 K, x1 = 0.3021 | 1122.93 | 7.071
308.15 K, x1 = 0.4012 | 1145.41 | 10.47
308.15 K, x1 = 0.4973 | 1163.8 | 14.56
308.15 K, x1 = 0.596 | 1180.31 | 19.81
308.15 K, x1 = 0.6998 | 1195.21 | 26.22
308.15 K, x1 = 0.7961 | 1207.65 | 33.3
308.15 K, x1 = 0.8821 | 1217.69 | 41.58
308.15 K, x1 = 1 | 1229.49 | 57.98
313.15 K, x1 = 0.1009 | 1058.09 | 2.432
313.15 K, x1 = 0.2012 | 1091.55 | 4.013
313.15 K, x1 = 0.3021 | 1119.03 | 6.231
313.15 K, x1 = 0.4012 | 1141.61 | 9.114
313.15 K, x1 = 0.4973 | 1160.1 | 12.5
313.15 K, x1 = 0.596 | 1176.69 | 16.76
313.15 K, x1 = 0.6998 | 1191.67 | 22.04
313.15 K, x1 = 0.7961 | 1204.17 | 27.72
313.15 K, x1 = 0.8821 | 1214.27 | 34.42
313.15 K, x1 = 1 | 1226.13 | 47.26
318.15 K, x1 = 0.1009 | 1053.91 | 2.231
318.15 K, x1 = 0.2012 | 1087.53 | 3.668
318.15 K, x1 = 0.3021 | 1115.14 | 5.615
318.15 K, x1 = 0.4012 | 1137.84 | 8.113
318.15 K, x1 = 0.4973 | 1156.42 | 11
318.15 K, x1 = 0.596 | 1173.09 | 14.57
318.15 K, x1 = 0.6998 | 1188.15 | 18.93
318.15 K, x1 = 0.7961 | 1200.71 | 23.58
318.15 K, x1 = 0.8821 | 1210.86 | 29
318.15 K, x1 = 1 | 1222.79 | 39.25
323.15 K, x1 = 0.1009 | 1049.74 | 2.061
323.15 K, x1 = 0.2012 | 1083.52 | 3.344
323.15 K, x1 = 0.3021 | 1111.25 | 5.053
323.15 K, x1 = 0.4012 | 1134.08 | 7.216
323.15 K, x1 = 0.4973 | 1152.75 | 9.678
323.15 K, x1 = 0.596 | 1169.51 | 12.7
323.15 K, x1 = 0.6998 | 1184.64 | 16.34
323.15 K, x1 = 0.7961 | 1197.26 | 20.2
323.15 K, x1 = 0.8821 | 1207.47 | 24.63
323.15 K, x1 = 1 | 1219.46 | 32.94
328.15 K, x1 = 0.1009 | 1045.59 | 1.912
328.15 K, x1 = 0.2012 | 1079.52 | 3.064
328.15 K, x1 = 0.3021 | 1107.38 | 4.575
328.15 K, x1 = 0.4012 | 1130.34 | 6.458
328.15 K, x1 = 0.4973 | 1149.1 | 8.585
328.15 K, x1 = 0.596 | 1165.95 | 11.16
328.15 K, x1 = 0.6998 | 1181.15 | 14.23
328.15 K, x1 = 0.7961 | 1193.83 | 17.46
328.15 K, x1 = 0.8821 | 1204.1 | 21.14
328.15 K, x1 = 1 | 1216.16 | 27.96
333.15 K, x1 = 0.1009 | 1041.42 | 1.782
333.15 K, x1 = 0.2012 | 1075.53 | 2.804
333.15 K, x1 = 0.3021 | 1103.53 | 4.154
333.15 K, x1 = 0.4012 | 1126.61 | 5.808
333.15 K, x1 = 0.4973 | 1145.47 | 7.681
333.15 K, x1 = 0.596 | 1162.4 | 9.893
333.15 K, x1 = 0.6998 | 1177.67 | 12.51
333.15 K, x1 = 0.7961 | 1190.42 | 15.27
333.15 K, x1 = 0.8821 | 1200.75 | 18.36
333.15 K, x1 = 1 | 1212.86 | 24.09
